Details: Liquid

CCCCCCn1cc[n+](C)c1.F[B-](F)(F)F [1-hexyl-3-methylimidazolium tetrafluoroborate]
viscosity [mPa·s]
Details | Cone and plate viscometry | Moving piston method
298.15 K, 100 kPa | – | 202
298.15 K, 101.33 kPa | 210.4 | 202.4
298.15 K, 2640 kPa | – | 209
298.15 K, 4290 kPa | – | 213
298.15 K, 6950 kPa | – | 215
298.15 K, 34590 kPa | – | 299
298.15 K, 48400 kPa | – | 387
298.15 K, 68140 kPa | – | 478
298.15 K, 82970 kPa | – | 532
298.15 K, 96820 kPa | – | 621
298.15 K, 108550 kPa | – | 743
298.15 K, 117850 kPa | – | 819
323.15 K, 100 kPa | – | 58.5
323.15 K, 101.33 kPa | – | 58.5
323.15 K, 2600 kPa | – | 59.7
323.15 K, 4130 kPa | – | 61
323.15 K, 6850 kPa | – | 62
323.15 K, 34520 kPa | – | 79.9
323.15 K, 48180 kPa | – | 91.1
323.15 K, 68990 kPa | – | 108.2
323.15 K, 82710 kPa | – | 121.8
323.15 K, 96550 kPa | – | 136
323.15 K, 110120 kPa | – | 152.4
323.15 K, 121810 kPa | – | 165
343.15 K, 100 kPa | – | 27
343.15 K, 101.33 kPa | – | 27
343.15 K, 3100 kPa | – | 27.6
343.15 K, 4100 kPa | – | 27.5
343.15 K, 7100 kPa | – | 28
343.15 K, 35100 kPa | – | 35.2
343.15 K, 48340 kPa | – | 39.2
343.15 K, 68140 kPa | – | 45
343.15 K, 83080 kPa | – | 49.9
343.15 K, 96550 kPa | – | 55.1
343.15 K, 110120 kPa | – | 60.8
343.15 K, 121810 kPa | – | 65

CCCCCCCCCCn1cc[n+](C)c1.O=S(=O)([N-]S(=O)(=O)C(F)(F)F)C(F)(F)F
viscosity [mPa·s]
Details | 298.15 K | 323.15 K | 343.15 K
100 kPa, Moving piston method | 108.2 | 36.2 | 18.15
101.33 kPa, Cone and plate viscometry | 111.2 | – | –
101.33 kPa, Moving piston method | 108.2 | 36.3 | 18.2
2950 kPa, Moving piston method | 111.5 | 37.5 | 18.55
4270 kPa, Moving piston method | 112.8 | 38.2 | 18.75
6900 kPa, Moving piston method | 117.6 | 39.2 | 19.3
34600 kPa, Moving piston method | 167.5 | 53.6 | 25.76
47960 kPa, Moving piston method | 199 | 61.8 | 29.15
68870 kPa, Moving piston method | 257 | 76 | 35.72
83290 kPa, Moving piston method | 301.1 | 85.9 | 40.47
93030 kPa, Moving piston method | 336.7 | 94.3 | 44.56
109800 kPa, Moving piston method | 402.7 | 110.8 | 51.26
122570 kPa, Moving piston method | 459.8 | 122.6 | 56.74

CCCCCCn1cc[n+](C)c1.F[P-](F)(F)(F)(F)F [1-hexyl-3-methylimidazolium hexafluorophosphate]
viscosity [mPa·s]
Details | 298.15 K | 323.15 K | 343.15 K
100 kPa, Moving piston method | 481 | 121.4 | 48.1
101.33 kPa, Cone and plate viscometry | 489.5 | – | –
101.33 kPa, Moving piston method | 481.4 | 121.4 | 48.1
2990 kPa, Moving piston method | 523 | – | –
4000 kPa, Moving piston method | 530 | 127.1 | 50.3
7000 kPa, Moving piston method | 556 | – | –
7600 kPa, Moving piston method | – | 132.4 | 52
22000 kPa, Moving piston method | 701 | – | –
25800 kPa, Moving piston method | – | 164 | 62.6
35000 kPa, Moving piston method | 833 | 182.6 | 68.6
42100 kPa, Moving piston method | 920 | – | –
50000 kPa, Moving piston method | 1023 | – | –
50600 kPa, Moving piston method | – | 218.9 | 80.5
60300 kPa, Moving piston method | 1176 | 241.7 | 88.1
76000 kPa, Moving piston method | – | 280.8 | 102.5
93000 kPa, Moving piston method | – | 334.2 | 118.7
101000 kPa, Moving piston method | – | 364.2 | 127.1
126000 kPa, Moving piston method | – | 483.1 | 157.8

CCCCn1cc[n+](C)c1.F[P-](F)(F)(F)(F)F [1-butyl-3-methylimidazolium hexafluorophosphate]
298.15 K, Moving piston method
Details | viscosity [mPa·s]
100 kPa | 270.9
3400 kPa | 289.7
6900 kPa | 305.7
12100 kPa | 329.2
17200 kPa | 353.7
24700 kPa | 396.3
25700 kPa | 398.2
41400 kPa | 473.8
50600 kPa | 543.4

CCn1cc[n+](C)c1.O=S(=O)([N-]S(=O)(=O)C(F)(F)F)C(F)(F)F
viscosity [mPa·s]
Details | 298.15 K | 323.15 K | 343.15 K
100 kPa, Moving piston method | 34.4 | 15.6 | 9.6
101.33 kPa, Cone and plate viscometry | 34.1 | – | –
101.33 kPa, Moving piston method | 34.29 | 15.6 | 9.55
2820 kPa, Moving piston method | 35 | 16.1 | 9.8
4190 kPa, Moving piston method | 35.3 | 16.4 | 9.9
7360 kPa, Moving piston method | 36.2 | 16.9 | 10.2
35560 kPa, Moving piston method | 46.8 | 22 | 12.6
48760 kPa, Moving piston method | 53.3 | 24.9 | 13.8
69300 kPa, Moving piston method | 65 | 30.8 | 16
85200 kPa, Moving piston method | 79.4 | 36.7 | 17.7
96500 kPa, Moving piston method | 90 | 40.1 | 19.2
110550 kPa, Moving piston method | 108.6 | 44.8 | 21.2
121530 kPa, Moving piston method | – | 49.5 | –
122430 kPa, Moving piston method | 131.5 | – | –
125530 kPa, Moving piston method | – | – | 23.4

CCCCCC[n+]1ccn(C)c1.O=S(=O)([N-]S(=O)(=O)C(F)(F)F)C(F)(F)F
viscosity [mPa·s]
Details | 298.15 K | 323.15 K | 343.15 K
100 kPa, Moving piston method | 70.96 | 24.9 | 14.07
101.33 kPa, Cone and plate viscometry | 71.5 | – | –
101.33 kPa, Moving piston method | 71 | 24.9 | 14.1
2990 kPa, Moving piston method | 71.04 | 25.81 | 14.12
4000 kPa, Moving piston method | 71.38 | 25.98 | 14.22
7000 kPa, Moving piston method | 73.71 | 26.87 | 14.6
35000 kPa, Moving piston method | 103.4 | 35.96 | 18.62
50000 kPa, Moving piston method | 122.2 | 41.57 | 21.1
70000 kPa, Moving piston method | 152.2 | 50.43 | 25.17
83000 kPa, Moving piston method | 173.2 | 56.96 | 28.12
93000 kPa, Moving piston method | 196.3 | 62.11 | 30.42
110000 kPa, Moving piston method | 237.6 | 71.6 | 34.65
124000 kPa, Moving piston method | 275.7 | 80.46 | 38.34

Reference: the NIST ThermoML archive (doi:10.1007/s10765-008-0497-7)
